How the values were obtained:
[1] = Stability of the compound in presence of CR/dCR deaminase; type: ADME
[2] = test system: L1210; test: Antitumor activity against mouse L1210 cells allografted in DBA/2 HaDD mouse assessed as survival at 75 mg/kg, ip bid administered for 2 days (reference value: 8.7 days); type: functional; details: route intraperitoneal
[3] = test system: HeLa; test: Cytotoxicity against human HeLa cells assessed as growth inhibition; type: functional
[4] = test system: L1210; test: Cytotoxicity against mouse L1210 cells assessed as growth inhibition; type: functional
[5] = test system: L1210; test: Antitumor activity against mouse L1210 cells allografted in DBA/2 HaDD mouse assessed as survival at 40 mg/kg, ip bid administered for 2 days (reference value: 8.7 days); type: functional; details: route intraperitoneal
[6] = test system: MOLT-4; test: Cytotoxicity against human MOLT4F cells assessed as growth inhibition; type: functional

SMILES	Stability [1]	Survival [2]	GI50 [3]	GI50 [4]	Survival [5]	GI50 [6]
Nc1ccn([C@@H]2O[C@H](CO)[C@@H](O)[C@@H]2N)c(=O)n1	Stable	>120 days	30000 nM	4000 nM		
[N-]=[N+]=N[C@H]1[C@H](O)[C@@H](CO)O[C@H]1n1ccc(N)nc1=O [CYTARAZID]	Stable		200 nM	600 nM	>120 days	70 nM

Source: ChEMBL document CHEMBL3244160, “Novel arabinofuranosyl derivatives of cytosine resistant to enzymatic deamination and possessing potent antitumor activity” (J Med Chem, 1978)
